Tests used:
[1] = target: T1, PP_3839 (adhP) gene product; calA-II (coniferyl alcohol dehydrogenase) (Pseudomonas putida, UniProt Q88G86); test: soluble cell extract, absorbance at […] nm; assay type: biochemical; settings: 0.5 mM NAD+, 1 mM coniferyl alcohol, 33 mM sodium phosphate pH 7, 30 °C
T1 construct: whole cells or soluble extract

[2] = target: T1, PP_3839 (adhP) gene product; calA-II (coniferyl alcohol dehydrogenase); test: soluble cell extract, absorbance at […] nm; also whole-cell HPLC; assay type: biochemical; settings: 1 mM substrate, 0.5 mM NAD+, 33 mM sodium phosphate pH 7, 30 °C

T1 sequence (Q88G86 1-336): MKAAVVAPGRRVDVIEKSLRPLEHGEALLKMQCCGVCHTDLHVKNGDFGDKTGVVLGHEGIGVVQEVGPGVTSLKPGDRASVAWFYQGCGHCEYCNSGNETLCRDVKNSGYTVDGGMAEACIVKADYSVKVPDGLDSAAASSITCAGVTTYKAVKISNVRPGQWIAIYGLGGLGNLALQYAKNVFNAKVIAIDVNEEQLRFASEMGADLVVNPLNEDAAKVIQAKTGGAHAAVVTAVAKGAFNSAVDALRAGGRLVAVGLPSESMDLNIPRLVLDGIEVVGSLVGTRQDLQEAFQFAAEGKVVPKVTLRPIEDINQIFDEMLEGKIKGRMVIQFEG

Structure (SMILES)	soluble cell extract, absorbance at 365 nm [1]	soluble cell extract, absorbance at 365 nm; also whole-cell HPLC [2]
NC(=O)c1ccc[n+]([C@@H]2O[C@H](COP(=O)(O)OP(=O)(O)OC[C@H]3O[C@@H](n4cnc5c(N)ncnc54)[C@H](O)[C@@H]3O)[C@@H](O)[C@H]2O)c1 [NAD^+]	coniferyl alcohol was rapidly oxidized in the presence of NAD^+	
COc1cc(/C=C/CO)ccc1O [coniferyl alcohol]		coniferyl alcohol was rapidly oxidized in the presence of NAD^+

From article PMC7054097, “Vanillin Production in Pseudomonas: Whole-Genome Sequencing of Pseudomonas sp. Strain 9.1 and Reannotation of Pseudomonas putida CalA as a Vanillin Reductase” (Applied and Environmental Microbiology, 2020)
